Structures can show the parent of a compound that is named as a salt.

In general, melting point refers to the temperature, or range, at which the solid turns liquid. Turning to `CCCCCCCCCCCCOC(=O)C(C)(C)N(C)C` (as salt: hydrochloride) [Nex-58, Dodecyl 2-(dimethylamino)-2-methylpropanoate hydrochloride], the melting point fell in the range of 68 to 74 °C. The molecule `CCCCCCCCCCCCOC(=O)C(C)N(C)C` (centres unmarked) (as salt: salt) [Nex-30, Dodecyl 2-(dimethylamino)propanoate ethanesulfonate] returned a melting point of 45 to 50 °C.

Values taken from patent publication US20140357713A1, “ANTIMICROBIAL COMPOUNDS AND METHODS OF USE” (NexMed Holdings, Inc., priority 2012, published 2014).
